This note sets out measurements from patent US8232289B2, “Spiropiperidine compounds as ORL-1 receptor antagonists” (Eli Lilly and Company, priority 2009, dated 2012).

Experiment [1] deals with wild type and ORL knockout mice. The experiment in a line: Blockade of fasting-induced hyperphagia in mice. The format is in vivo. The source says: Blockade of fasting-induced hyperphagia in rodents is an accepted model for hyperphagic eating disorders. […] Mice are individually housed a minimum of 3 days prior to the onset of testing to eliminate any effects of stress due to the change from group to individual housing. Three mice/genotype are randomly assigned to each treatment group on the test day. Pre-fast body weight measurements are taken, and food is then removed from cages overnight. Mice are fasted for approximately 15 hr. The next morning, the mice are given one of three doses of drug or vehicle via oral gavage 30 min. prior to gaining access to food. Drugs are dissolved in 20% Captisol dissolved in 25 mM phosphate buffer, pH 2.0. Measurements of body weight are taken immediately prior to drug treatment or 24 hr. after access to food is restored. […] Measurements of food intake are recorded 1 hr following access to food, as indicated, by weight of food remaining at 1 hr. It should be noted that food intake measured is during the light phase, a time during which mice are typically at rest and not normally eating. Following initial testing, mice are rested for 1 week with access to unlimited chow.

Experiment [2] has as its target T1, human ERG (hERG) K+ channel (Homo sapiens, UniProt Q12809).
T1 construct: host or cells: HEK293 cells
The experiment in a line: hERG channel [3H]astemizole binding assay. The protocol: Blockade of K^+-channel conductance in the heart is associated with cardiotoxicity in the form of QT-wave prolongation. The affinity (K) of the exemplified nociceptin receptor antagonists for the human ERG (hERG) K^+ channel is determined in HEK293 cells expressing cloned hERG using the hERG channel antagonist radioligand [3H]astemizole (2 nM final assay concentration) according to well known procedures (see for example Finlayson K, et al. (Eur J Pharmacol. 412(3):203-12, 2001) [3H]Astemizole binding assays are performed at the contract research company Cerep (Paris France) according to standard procedures.

The target in another experiment is T2, human ORL1 receptors (Homo sapiens, UniProt P41146).
T2 construct: expressed in transfected cells; host or cells: CHO cells (membranes)
T2 sequence (P41146 whole entry): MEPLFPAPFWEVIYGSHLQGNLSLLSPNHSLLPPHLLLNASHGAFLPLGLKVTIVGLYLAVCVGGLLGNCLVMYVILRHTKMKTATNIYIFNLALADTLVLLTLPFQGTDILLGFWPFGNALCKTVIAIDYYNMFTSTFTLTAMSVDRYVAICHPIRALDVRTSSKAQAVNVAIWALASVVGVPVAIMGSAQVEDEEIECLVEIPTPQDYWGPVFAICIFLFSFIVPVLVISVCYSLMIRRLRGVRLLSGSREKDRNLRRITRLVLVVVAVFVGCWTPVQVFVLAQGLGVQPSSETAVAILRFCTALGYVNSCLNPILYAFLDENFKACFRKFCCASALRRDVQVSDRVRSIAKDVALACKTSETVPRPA
The experiment in a line: [3H]-OFQ/nociceptin receptor binding assay. The protocol:
Radioligand binding assays are commonly used to determine the affinity (Ki) or potency of a compound to bind to a particular receptor or target protein. A filtration-based [3H]-OFQ/nociceptin receptor binding assay is developed based on previous assay formats (Ardati A, Henningsen R A, Higelin J, Reinscheid R K, Civelli O, Monsma F J Jr. Mol. Pharmacol. 1997 May; 51(5):816-24.) with minor modifications. [3H]-OFQ/nociceptin binding assays are carried out in deep-well 96-well plates. [^3H]OFQ (final assay concentration 0.2 nM) competition studies are carried out with 5-10 μg of membrane protein (isolated from Chinese hamster ovary cells (CHO cells) expressing cloned human ORL1 receptors) in a final assay volume of 0.5 mL of buffer containing 20 mM HEPES, pH 7.4, 5 mM MgCl2, 1 mM EGTA, 100 mM NaCl, 0.1% bovine serum albumin. Samples are incubated for 60 min. at room temperature, which is found to be optimal for competition assays. The assays are terminated by filtration through glass fiber filters (Wallac filtermat A) [pretreated with 0.3% polyethylenimine (Sigma) for 1 hr] on a Tometc cell harvester, and the filters are washed three times with 5 mL of ice-cold 50 mM Tris.HCl, pH 7.4. Filtermats are then dried and imbedded with Meltilex scintillant A and the radioactivity counted in a Wallac Microbeta scintillation counter. Specific binding is determined by displacement with 100 nM unlabeled nociceptin. Curves are plotted as the percent of specific binding and IC50 values are determined using a sigmoidal dose response curve with variable slope. Ki values are calculated from the IC50 by the equation of Cheng and Prusoff (Cheng, Y. C., and Prusoff, W. H., Biochem. Pharmacol. 22, 3099-3108 (1973)) where Ki=IC50×(1+D×Kd^−1)^−1.

Another experiment addresses Mu Opioid (Homo sapiens, UniProt P35372). The experiment in a line: Radioligand binding selectivity, Mu Opioid. The source says: (§1) Similarly, Ki for the mu, kappa and delta opioids, serotonin, dopamine, adrenergic, mucarinic, and histamine receptors, as well as binding to the norepinephrine transporter, sodium channel, chloride channel, and calcium channel may be determined using membranes expressing the desired receptor/transporter/channels and appropriate corresponding radioligand competitor molecules.

The target of another experiment is Kappa Opioid (Homo sapiens, UniProt P41145). The experiment in a line: Radioligand binding selectivity, Kappa Opioid.
Sequence of Kappa Opioid (P41145 whole entry): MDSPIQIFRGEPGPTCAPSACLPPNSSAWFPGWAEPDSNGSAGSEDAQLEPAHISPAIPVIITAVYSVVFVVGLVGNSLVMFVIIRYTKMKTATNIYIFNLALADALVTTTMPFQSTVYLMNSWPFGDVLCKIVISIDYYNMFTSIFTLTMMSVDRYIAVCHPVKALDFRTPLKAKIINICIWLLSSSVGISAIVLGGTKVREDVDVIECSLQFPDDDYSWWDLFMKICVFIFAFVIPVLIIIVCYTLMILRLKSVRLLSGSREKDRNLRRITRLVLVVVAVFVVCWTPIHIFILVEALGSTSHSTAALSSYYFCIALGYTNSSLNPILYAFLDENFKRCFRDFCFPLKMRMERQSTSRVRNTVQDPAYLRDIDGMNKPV
From the text: as §1

Setting [3] is: wild type mice, oral gavage 30 min. prior to food, food intake at 1 hr.

SMILES strings stand for the structures. Read-outs that look alike come from different tables or passages of the source. Bounds are passed on as bounds.

By Ki is commonly meant a dissociation constant, usually derived from enzyme kinetics or from competition with a known ligand.

Sequence of Mu Opioid (P35372 whole entry): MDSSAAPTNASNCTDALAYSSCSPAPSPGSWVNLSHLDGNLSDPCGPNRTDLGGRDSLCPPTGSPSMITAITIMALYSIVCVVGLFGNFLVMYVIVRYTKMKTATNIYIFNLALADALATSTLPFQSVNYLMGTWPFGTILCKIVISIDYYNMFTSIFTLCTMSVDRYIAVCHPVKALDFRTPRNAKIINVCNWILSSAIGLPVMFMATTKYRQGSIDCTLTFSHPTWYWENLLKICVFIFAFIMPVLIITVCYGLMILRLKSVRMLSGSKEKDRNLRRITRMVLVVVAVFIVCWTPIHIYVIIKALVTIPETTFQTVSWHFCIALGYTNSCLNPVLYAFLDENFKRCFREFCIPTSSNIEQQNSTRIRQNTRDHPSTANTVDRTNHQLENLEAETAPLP
T1 sequence (Q12809 whole entry): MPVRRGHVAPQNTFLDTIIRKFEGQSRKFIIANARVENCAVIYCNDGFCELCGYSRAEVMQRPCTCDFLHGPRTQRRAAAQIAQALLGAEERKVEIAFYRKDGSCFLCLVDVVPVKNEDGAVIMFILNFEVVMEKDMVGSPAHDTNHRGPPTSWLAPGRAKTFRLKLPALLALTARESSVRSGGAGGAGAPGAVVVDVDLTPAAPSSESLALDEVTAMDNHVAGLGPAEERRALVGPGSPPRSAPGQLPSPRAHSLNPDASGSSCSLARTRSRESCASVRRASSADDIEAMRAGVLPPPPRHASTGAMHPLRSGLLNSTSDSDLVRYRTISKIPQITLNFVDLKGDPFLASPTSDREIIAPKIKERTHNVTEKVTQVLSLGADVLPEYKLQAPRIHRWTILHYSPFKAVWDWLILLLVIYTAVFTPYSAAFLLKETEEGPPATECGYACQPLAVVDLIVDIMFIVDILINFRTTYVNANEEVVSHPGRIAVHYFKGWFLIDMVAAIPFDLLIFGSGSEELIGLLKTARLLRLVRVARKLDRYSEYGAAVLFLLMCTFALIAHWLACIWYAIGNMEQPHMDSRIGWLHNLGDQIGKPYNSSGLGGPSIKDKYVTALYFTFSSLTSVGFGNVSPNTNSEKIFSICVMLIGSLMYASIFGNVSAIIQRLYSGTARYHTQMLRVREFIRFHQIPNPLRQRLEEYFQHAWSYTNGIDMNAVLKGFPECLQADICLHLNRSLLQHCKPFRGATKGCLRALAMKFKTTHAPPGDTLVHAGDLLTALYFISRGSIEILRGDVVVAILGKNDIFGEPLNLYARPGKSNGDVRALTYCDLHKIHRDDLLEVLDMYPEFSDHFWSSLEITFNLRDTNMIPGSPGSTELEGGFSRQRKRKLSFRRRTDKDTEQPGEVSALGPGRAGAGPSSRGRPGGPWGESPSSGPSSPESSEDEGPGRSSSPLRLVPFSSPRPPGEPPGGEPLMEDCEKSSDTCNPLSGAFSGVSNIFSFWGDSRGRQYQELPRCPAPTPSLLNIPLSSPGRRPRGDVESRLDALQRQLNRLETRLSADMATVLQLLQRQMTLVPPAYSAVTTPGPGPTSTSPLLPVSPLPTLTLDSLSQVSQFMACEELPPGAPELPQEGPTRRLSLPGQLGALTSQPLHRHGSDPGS

As to `Cc1nn(-c2ncccc2Cn2cccn2)cc1CN1CCC2(CC1)OCC(F)(F)c1cc(Cl)sc12.O=C(O)C(O)C(O)C(=O)O` [Example 23, 2-Chloro-4,4-difluoro-1′-[[3-methyl-1-[3-(pyrazol-1-ylmethyl)-2-pyridyl]pyrazol-4-yl]methyl]spiro[5H-thieno[2,3-c]pyran-7,4′-piperidine] (L)-Tartrate], the “effect on fasting-induced hyperphagia” value in experiment [1] (ORL-1 knockout mouse strain) is “not observed”; in experiment [1] (setting [3]), “substantially block fasting-induced hyperphagia”. Also, the inhibitory constant (Ki) was 1210 nM in experiment [2], 0.79 nM on human ORL1 receptors, over 451 nM on Mu Opioid and over 430 nM at Kappa Opioid.
Take `O=C(O)C(O)C(O)C(=O)O.OCc1nn(-c2ncccc2F)cc1CN1CCC2(CC1)OCC(F)(F)c1cc(Cl)sc12` [Example 53, [4-[(2-Chloro-4,4-difluoro-spiro[5H-thieno[2,3-c]pyran-7,4′-piperidine]-1′-yl)methyl]-1-(3-fluoro-2-pyridyl)pyrazol-3-yl]methanol (L)-Tartrate]: the “effect on fasting-induced hyperphagia” value is reported as “not observed” in experiment [1] (ORL-1 knockout mouse strain) and “substantially block fasting-induced hyperphagia” in experiment [1] (setting [3]). Moreover, the inhibitory constant (Ki) is 8600 nM in experiment [2], 0.45 nM on human ORL1 receptors, over 451 nM at Mu Opioid and over 430 nM at Kappa Opioid.
Turning to `Cc1nn(-c2ncccc2CO)cc1CN1CCC2(CC1)OCC(F)(F)c1cc(Cl)sc12` [Example 62, [2-[4-[(2-Chloro-4,4-difluoro-spiro[5H-thieno[2,3-c]pyran-7,4′-piperidine]-1′-yl)methyl]-3-methyl-pyrazol-1-yl]-3-pyridyl]methanol], the “effect on fasting-induced hyperphagia” value is “not observed” in experiment [1] (ORL-1 knockout mouse strain) and “substantially block fasting-induced hyperphagia” in experiment [1] (setting [3]). The Ki in experiment [2] (HEK293 cells expressing cloned hERG, [3H]astemizole 2 nM, read-out: Ki hERG K+ channel) is 6080 nM; at human ORL1 receptors ([3H]OFQ 0.2 nM, CHO cell membranes, read-out: Ki ORL-1), 0.18 nM; on Mu Opioid (read-out: Ki Mu Opioid), over 451 nM; at Kappa Opioid (read-out: Ki Kappa Opioid), over 430 nM.
